Data reported in US8962641B2, “Pyrimidine-substituted pyrrolidine derivatives, pharmaceutical compositions and uses thereof” (Boehringer Ingelheim International GmbH, priority 2013, dated 2015).

Each compound was assayed against human ACC2 (Homo sapiens (Human), UniProt O00763) (assay: ACC2 assay (spectrophotometric 384 well assay, NADH-linked kinetic method)). Conditions: hACC2 construct lacking 128 N-terminal amino acids; coupled lactate dehydrogenase/pyruvate kinase reaction, 340 nm, 25° C.
Assay type: biochemical
In short: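 Baculovirus/insect-cell human ACC2, anion-exchange purified; ADP formation coupled to pyruvate kinase/lactate dehydrogenase, NADH loss followed at 340 nm, 25° C, 15 min. Final 200 μM NADH and acetyl-CoA, 500 uM ATP; vehicle and no-acetyl-CoA wells set 100% and 0%.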

Sequence of human ACC2 (O00763 129-2458): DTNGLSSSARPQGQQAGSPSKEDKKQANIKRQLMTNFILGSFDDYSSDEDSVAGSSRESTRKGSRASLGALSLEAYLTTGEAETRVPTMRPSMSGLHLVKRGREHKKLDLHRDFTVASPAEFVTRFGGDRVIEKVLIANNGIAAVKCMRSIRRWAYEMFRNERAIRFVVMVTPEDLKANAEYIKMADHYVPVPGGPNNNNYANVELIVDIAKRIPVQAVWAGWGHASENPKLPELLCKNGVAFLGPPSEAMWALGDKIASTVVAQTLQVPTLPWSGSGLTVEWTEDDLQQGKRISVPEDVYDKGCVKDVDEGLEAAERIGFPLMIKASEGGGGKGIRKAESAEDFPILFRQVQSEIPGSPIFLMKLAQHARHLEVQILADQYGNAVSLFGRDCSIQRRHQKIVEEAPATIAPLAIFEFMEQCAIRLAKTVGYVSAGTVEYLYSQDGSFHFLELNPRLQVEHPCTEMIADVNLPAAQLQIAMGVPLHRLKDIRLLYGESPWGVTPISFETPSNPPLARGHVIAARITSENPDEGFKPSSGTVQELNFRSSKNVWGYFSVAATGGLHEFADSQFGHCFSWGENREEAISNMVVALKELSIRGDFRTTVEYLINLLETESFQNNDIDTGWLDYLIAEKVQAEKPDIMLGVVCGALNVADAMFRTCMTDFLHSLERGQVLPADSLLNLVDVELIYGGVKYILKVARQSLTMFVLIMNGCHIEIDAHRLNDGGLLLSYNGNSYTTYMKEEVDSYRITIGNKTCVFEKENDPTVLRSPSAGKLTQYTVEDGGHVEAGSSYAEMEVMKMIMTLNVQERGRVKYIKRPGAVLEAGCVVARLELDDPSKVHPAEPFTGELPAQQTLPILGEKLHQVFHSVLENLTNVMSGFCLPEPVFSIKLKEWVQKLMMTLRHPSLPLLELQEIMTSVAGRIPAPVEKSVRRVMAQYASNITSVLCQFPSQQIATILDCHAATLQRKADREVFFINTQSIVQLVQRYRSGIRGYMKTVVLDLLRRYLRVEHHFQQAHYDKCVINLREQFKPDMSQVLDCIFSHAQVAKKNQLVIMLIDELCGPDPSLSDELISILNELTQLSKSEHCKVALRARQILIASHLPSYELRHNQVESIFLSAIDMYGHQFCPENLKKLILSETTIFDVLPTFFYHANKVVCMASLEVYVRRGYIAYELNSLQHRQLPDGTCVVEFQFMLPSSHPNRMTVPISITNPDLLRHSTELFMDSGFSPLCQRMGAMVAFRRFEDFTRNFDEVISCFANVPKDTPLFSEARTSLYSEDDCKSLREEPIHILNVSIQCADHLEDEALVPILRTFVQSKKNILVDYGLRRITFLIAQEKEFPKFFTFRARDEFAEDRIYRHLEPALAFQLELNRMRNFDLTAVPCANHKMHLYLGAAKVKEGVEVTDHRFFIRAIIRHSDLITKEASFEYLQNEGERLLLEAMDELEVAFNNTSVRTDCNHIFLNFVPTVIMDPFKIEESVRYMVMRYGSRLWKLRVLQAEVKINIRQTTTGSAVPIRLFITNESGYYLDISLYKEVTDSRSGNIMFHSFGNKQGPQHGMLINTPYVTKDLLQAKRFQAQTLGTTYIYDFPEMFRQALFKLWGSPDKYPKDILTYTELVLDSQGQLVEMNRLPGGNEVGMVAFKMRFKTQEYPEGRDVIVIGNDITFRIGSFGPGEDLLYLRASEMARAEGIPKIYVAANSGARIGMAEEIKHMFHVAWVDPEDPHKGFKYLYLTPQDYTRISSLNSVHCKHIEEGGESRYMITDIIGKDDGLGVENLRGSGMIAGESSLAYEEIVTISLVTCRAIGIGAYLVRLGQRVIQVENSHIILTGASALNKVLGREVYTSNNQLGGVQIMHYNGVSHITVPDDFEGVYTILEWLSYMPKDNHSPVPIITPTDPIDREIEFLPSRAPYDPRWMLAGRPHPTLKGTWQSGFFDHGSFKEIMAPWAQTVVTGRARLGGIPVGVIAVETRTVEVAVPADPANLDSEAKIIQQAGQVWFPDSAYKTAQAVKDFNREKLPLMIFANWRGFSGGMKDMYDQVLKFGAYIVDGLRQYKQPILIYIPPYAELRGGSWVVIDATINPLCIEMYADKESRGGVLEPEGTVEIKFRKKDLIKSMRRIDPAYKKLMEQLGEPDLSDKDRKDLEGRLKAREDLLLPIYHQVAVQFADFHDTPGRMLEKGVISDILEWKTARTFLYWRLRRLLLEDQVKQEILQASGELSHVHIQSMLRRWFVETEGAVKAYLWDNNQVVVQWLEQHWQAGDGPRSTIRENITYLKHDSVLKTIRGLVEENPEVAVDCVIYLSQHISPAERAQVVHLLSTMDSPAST

| SMILES | IC50 |
| --- | --- |
| CC(=O)N[C@@H](C)c1ccc(O[C@@H]2CCN(c3ncnc(N4CCC(C)(C)C4)c3F)C2)cc1 [Example 8.199] | 85 nM |
| CC(=O)N[C@@H](C)c1ccc(O[C@@H]2CCN(c3ncnc(N4CC(C)C4)c3F)C2)cc1 [Example 8.200] | 354 nM |
| CC(=O)N[C@@H](C)c1ccc(O[C@@H]2CCN(c3ncnc(N4CCC(CO)C4)c3F)C2)cc1 (stereo partly drawn) [Example 8.201] | 294 nM |
| CC(=O)N[C@@H](C)c1ccc(O[C@@H]2CCN(c3ncnc(N4CCC(CO)C4)c3F)C2)cc1 (stereo partly drawn) [Example 8.202] | 721 nM |
| CC(=O)N[C@@H](C)c1ccc(O[C@@H]2CCN(c3nc(N4CCOC(C)(C)C4)ncc3Cl)C2)cc1 [Example 8.209] | 351 nM |
| CC(=O)N[C@@H](C)c1ccc(O[C@@H]2CCN(c3ncnc(N4CCc5nocc5C4)c3F)C2)cc1 [Example 8.212] | 998 nM |
| COC1CCN(c2ncnc(N3CC[C@@H](Oc4ccc([C@H](C)NC(C)=O)cc4)C3)c2F)CC1 [Example 8.213] | 360 nM |
| CC(=O)N[C@@H](C)c1ccc(O[C@@H]2CCN(c3nc(N(C)CCOC(C)(C)C)ncc3F)C2)cc1 [Example 8.215] | 719 nM |
| CC(=O)N[C@@H](C)c1ccc(O[C@@H]2CCN(c3nc(N4CCCOCC4)ncc3F)C2)cc1 [Example 8.216] | 125 nM |
| CC(=O)N[C@@H](C)c1ccc(O[C@@H]2CCN(c3nc(N4CC(F)(F)C(F)(F)C4)ncc3F)C2)cc1 [Example 8.217] | 145 nM |
| CC(=O)N[C@@H](C)c1ccc(O[C@@H]2CCN(c3nc(N4CCCC(F)(F)C4)ncc3F)C2)cc1 [Example 8.218] | 140 nM |
| CC(=O)N[C@@H](C)c1ccc(O[C@@H]2CCN(c3nc(N4CCCOCC4)ncc3Cl)C2)cc1 [Example 8.220] | 182 nM |
| CC(=O)N[C@@H](C)c1ccc(O[C@@H]2CCN(c3nc(N4CC(F)(F)C(F)(F)C4)ncc3Cl)C2)cc1 [Example 8.222] | 150 nM |
| CC(=O)N[C@@H](C)c1ccc(O[C@@H]2CCN(c3nc(N4CCOC(C)(C)C4)ncc3F)C2)cc1 [Example 8.224] | 170 nM |
| COC[C@@H](C)N(C)c1ncc(Cl)c(N2CC[C@@H](Oc3ccc([C@H](C)NC(C)=O)cc3)C2)n1 [Example 8.225] | 199 nM |
| CC(=O)N[C@@H](C)c1ccc(O[C@@H]2CCN(c3nc(N4CCC5(CC5)C4)ncc3F)C2)cc1 [Example 8.226] | 52 nM |
| CC(=O)N[C@@H](C)c1ccc(O[C@@H]2CCN(c3ncnc(N4CC(F)(F)C(F)(F)C4)c3F)C2)cc1 [Example 8.231] | 127 nM |
| CO[C@@H]1CCN(c2ncnc(N3CC[C@@H](Oc4ccc([C@H](C)NC(C)=O)cc4)C3)c2F)C1 [Example 8.234] | 898 nM |
| CC(=O)N[C@@H](C)c1ccc(O[C@@H]2CCN(c3ncnc(N4CCC5(CC5)C4)c3F)C2)cc1 [Example 8.235] | 45 nM |
| CC(=O)N[C@@H](C)c1ccc(O[C@@H]2CCN(c3ncnc(N4CC(C)(O)C4)c3F)C2)cc1 [Example 8.237] | 749 nM |
| CC(=O)N[C@@H](C)c1ccc(O[C@@H]2CCN(c3nc(N4CCc5nocc5C4)ncc3F)C2)cc1 [Example 8.238] | 534 nM |
| CCN(CCO)c1ncc(F)c(N2CC[C@@H](Oc3ccc([C@H](C)NC(C)=O)cc3)C2)n1 [Example 8.240] | 215 nM |
| CC(=O)N[C@@H](C)c1ccc(O[C@@H]2CCN(c3nc(N4CC=CC4)ncc3F)C2)cc1 [Example 8.244] | 165 nM |
| CC(=O)N[C@@H](C)c1ccc(O[C@@H]2CCN(c3nc(N(C)CCC(F)(F)F)ncc3Cl)C2)cc1 [Example 8.247] | 110 nM |
| CC(=O)N[C@@H](C)c1ccc(O[C@@H]2CCN(c3ncnc(N4CCCC4(C)C)c3F)C2)cc1 [Example 8.250] | 358 nM |
| CC(=O)N[C@@H](C)c1ccc(O[C@@H]2CCN(c3ncnc(N4CCC(F)(F)CC4)c3F)C2)cc1 [Example 8.251] | 97 nM |

Results, then the compound that gave them:

| IC50 | SMILES |
| --- | --- |
| 334 nM | CC(=O)N[C@@H](C)c1ccc(O[C@@H]2CCN(c3ccnc(N(C)C[C@@H]4CCCO4)n3)C2)cc1 [Example 8.203] |
| 945 nM | COC[C@H](C)N(C)c1nccc(N2CC[C@@H](Oc3ccc([C@H](C)NC(C)=O)cc3)C2)n1 [Example 8.204] |
| 607 nM | CC(=O)N[C@@H](C)c1ccc(O[C@@H]2CCN(c3nc(N(C)CCO)ncc3F)C2)cc1 [Example 8.205] |
| 75 nM | CC(=O)N[C@@H](C)c1ccc(O[C@@H]2CCN(c3ccnc(N(C)CCC(F)(F)F)n3)C2)cc1 [Example 8.206] |
| 99 nM | CC(=O)N[C@@H](C)c1ccc(O[C@@H]2CCN(c3ccnc(N4CCC(F)(F)CC4)n3)C2)cc1 [Example 8.207] |
| 172 nM | CC(=O)N[C@@H](C)c1ccc(O[C@@H]2CCN(c3ccnc(N4CCCC(F)(F)C4)n3)C2)cc1 [Example 8.208] |
| 714 nM | CC(=O)N[C@@H](C)c1ccc(O[C@@H]2CCN(c3nc(N4CCOCC4C)ncc3Cl)C2)cc1 (stereo partly drawn) [Example 8.210] |
| 506 nM | CC(=O)N[C@@H](C)c1ccc(O[C@@H]2CCN(c3nc(N(CCO)C4CC4)ncc3Cl)C2)cc1 [Example 8.211] |
| 865 nM | CC(=O)N[C@@H](C)c1ccc(O[C@@H]2CCN(c3ccnc(N4CCC(C)(O)C4)n3)C2)cc1 (stereo partly drawn) [Example 8.214] |
| 355 nM | CC(=O)N[C@@H](C)c1ccc(O[C@@H]2CCN(c3nc(N4CC(C)C4)ncc3Cl)C2)cc1 [Example 8.219] |
| 269 nM | CC(=O)N[C@@H](C)c1ccc(O[C@@H]2CCN(c3nc(N(C)C4CCOCC4)ncc3Cl)C2)cc1 [Example 8.221] |
| 103 nM | CC(=O)N[C@@H](C)c1ccc(O[C@@H]2CCN(c3nc(N(C)CC(C)C)ncc3Cl)C2)cc1 [Example 8.223] |
| 619 nM | COC[C@H]1CCCN1c1nccc(N2CC[C@@H](Oc3ccc([C@H](C)NC(C)=O)cc3)C2)n1 [Example 8.228] |
| 641 nM | COC1CCN(c2nccc(N3CC[C@@H](Oc4ccc([C@H](C)NC(C)=O)cc4)C3)n2)CC1 [Example 8.229] |
| 485 nM | CC(=O)N[C@@H](C)c1ccc(O[C@@H]2CCN(c3ccnc(N4CC[C@H](F)C4)n3)C2)cc1 [Example 8.230] |
| 60 nM | CC(=O)N[C@@H](C)c1ccc(O[C@@H]2CCN(c3ncnc(N(C)C4CCC4)c3F)C2)cc1 [Example 8.232] |
| 153 nM | CC(=O)N[C@@H](C)c1ccc(O[C@@H]2CCN(c3ncnc(N4CCCC4C)c3F)C2)cc1 (stereo partly drawn) [Example 8.233] |
| 314 nM | CC(=O)N[C@@H](C)c1ccc(O[C@@H]2CCN(c3ncnc(N(C)C4CCCOC4)c3F)C2)cc1 (stereo partly drawn) [Example 8.236] |
| 487 nM | CC(=O)N[C@@H](C)c1ccc(O[C@@H]2CCN(c3nc(N(C)CC(C)O)ncc3F)C2)cc1 (stereo partly drawn) [Example 8.239] |
| 594 nM | CC(=O)N[C@@H](C)c1ccc(O[C@@H]2CCN(c3nc(N4CC[C@H](F)C4)ncc3Cl)C2)cc1 [Example 8.241] |
| 459 nM | COCCCN(C)c1nccc(N2CC[C@@H](Oc3ccc([C@H](C)NC(C)=O)cc3)C2)n1 [Example 8.242] |
| 559 nM | CC(=O)N[C@@H](C)c1ccc(O[C@@H]2CCN(c3ccnc(N4CCCC4(C)C)n3)C2)cc1 [Example 8.243] |
| 937 nM | CC(=O)N[C@@H](C)c1ccc(O[C@@H]2CCN(c3nc(N4CC[C@H](O)C4)ncc3F)C2)cc1 [Example 8.245] |
| 680 nM | CC(=O)N[C@@H](C)c1ccc(O[C@@H]2CCN(c3ccnc(N4CCc5nocc5C4)n3)C2)cc1 [Example 8.246] |
| 1040 nM | CC(=O)N[C@@H](C)c1ccc(O[C@@H]2CCN(c3nc(N(C)CCO)ncc3Cl)C2)cc1 [Example 8.248] |
